# pIC50: −log10 of the molar value.
# Tests used:
# [1] = Inhibition of recombinant CaMK2 expressed in Sf9cells using autocamtide-2/CAM as substrate after 90 mins; details: sf9
# [2] = Selectivity ratio of IC50 for PKCgamma to IC50 for recombinant CaMK2
# [3] = Selectivity ratio of IC50 for Akt1 to IC50 for recombinant CaMK2
# [4] = Selectivity ratio of IC50 for MLCK to IC50 for recombinant CaMK2
# [5] = Selectivity ratio of IC50 for p38alpha to IC50 for recombinant CaMK2
# [6] = Solubility of the compound in water at pH 7.4; assay type: physicochemical
SMILES,pIC50 [1],other results
O=C(O)COc1ccc2[nH]c(C(=O)c3ccc(Oc4ccccc4)cc3)cc2c1,6.29,
O=C(c1ccc(Oc2ccccc2)cc1)c1cc2c(OCCN3CCNCC3)cccc2[nH]1,6.57,
CC(C)(Oc1ccc2[nH]c(C(=O)c3ccc(Oc4ccccc4)cc3)cc2c1)C(=O)O,5.82,
O=C(c1ccc(Oc2ccccc2)cc1)c1cc2c(OCCN3CCCCC3)cccc2[nH]1,6.09,
Cc1c(O)ccc2[nH]c(C(=O)c3ccc(Oc4ccccc4)cc3)cc12,5.89,
CCNCCOc1ccc2[nH]c(C(=O)c3ccc(Oc4ccccc4)cc3)cc2c1,5.82,
O=C(c1ccc(Oc2ccccc2)cc1)c1cc2c(Cl)c(O)ccc2[nH]1,6.19,
O=C(c1ccc(Oc2ccccc2)cc1)c1cc2c(OCCCN3CCCCC3)cccc2[nH]1,6.10,
O=C(c1ccc(Oc2ccccc2)cc1)c1cc2c(Cl)c(O)c(Cl)cc2[nH]1,7.21,solubility [6]: < 1 µg/mL
O=C(c1ccc(Oc2ccccc2)cc1)c1cc2c(Br)c(O)ccc2[nH]1,7.40,Ratio IC50 [2]: 550; Ratio IC50 [3]: 1500; Ratio IC50 [4]: 12; Ratio IC50 [5]: 115; solubility [6]: < 1 µg/mL

# Second part, led by results:
pIC50 [1],SMILES,other results
5.96,CCNCCOc1cccc2[nH]c(C(=O)c3ccc(Oc4ccccc4)cc3)cc12,
5.59,NCCOc1cccc2[nH]c(C(=O)c3ccc(Oc4ccccc4)cc3)cc12,
< 5.00,COc1ccc2[nH]c(C(=O)c3ccc(Oc4ccccc4)cc3)cc2c1,
6.38,O=C(c1ccc(Oc2ccccc2)cc1)c1cc2c(OCCN3CCC(O)CC3)cccc2[nH]1,
7.92,O=C(c1ccc(Oc2ccccc2)cc1)c1cc2c(Br)c(O)c(Br)cc2[nH]1,Ratio IC50 [2]: 1250; Ratio IC50 [3]: > 5000; Ratio IC50 [4]: 63; Ratio IC50 [5]: 450; solubility [6]: < 1 µg/mL
6.21,O=C(c1ccc(Oc2ccccc2)cc1)c1cc2cc(O)ccc2[nH]1,Ratio IC50 [2]: 93; Ratio IC50 [3]: 295; Ratio IC50 [4]: < 1; Ratio IC50 [5]: < 1

# Source: ChEMBL document CHEMBL2203284, “Synthesis and structure based optimization of 2-(4-phenoxybenzoyl)-5-hydroxyindole as a novel CaMKII inhibitor” (Bioorg Med Chem, 2012)
